Data taken from patent US7598092B2, “Methods, devices, systems and computer program products for stochastic, competitive, force-based analyte detection” (priority 2006, dated 2009).
Where two headings read alike, the source gives them in different places. Each block holds one compound with its values, some of them ahead of it.

Tests used:
Murine galectin 3 = Murine galectin 3 (Mus musculus, UniProt P16110); conditions: Gaussian fit of 10 pN bins
streptavidin = streptavidin (Streptomyces avidinii, UniProt P22629); conditions: cited from earlier work
Avidin = Avidin (Gallus gallus, UniProt P02701); conditions: cited from earlier work
Avidin, sequence (P02701 25-152): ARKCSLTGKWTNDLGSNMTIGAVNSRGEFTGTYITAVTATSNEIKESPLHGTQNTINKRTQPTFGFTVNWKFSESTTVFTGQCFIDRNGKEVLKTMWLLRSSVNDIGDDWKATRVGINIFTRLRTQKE

galectin 3 = galectin 3 (Mus musculus, UniProt P16110); assay: isothermal titration calorimetry of soluble ligand binding to galectin 3; set-up: species or system Murine
galectin 3, sequence (P16110 whole entry): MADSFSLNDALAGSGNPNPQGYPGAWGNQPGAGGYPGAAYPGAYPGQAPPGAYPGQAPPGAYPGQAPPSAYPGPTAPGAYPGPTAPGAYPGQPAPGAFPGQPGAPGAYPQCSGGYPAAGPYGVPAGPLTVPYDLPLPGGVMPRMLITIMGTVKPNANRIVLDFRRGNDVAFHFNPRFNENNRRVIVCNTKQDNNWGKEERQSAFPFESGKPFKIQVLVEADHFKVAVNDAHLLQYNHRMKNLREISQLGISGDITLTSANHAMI

Murine galectin 3, sequence (P16110 whole entry): as above

average rupture force (Murine galectin 3; Fe^3+ surface immobilization of galectin 3): 71 pN
average rupture force (Murine galectin 3; Ni^2+ surface immobilization of galectin 3): 72 pN
Compound: OC[C@H]1O[C@@H](O[C@H]2[C@H](O)[C@@H](O)C(O)O[C@@H]2CO)[C@H](O)[C@@H](O)[C@H]1O (some centres unmarked) [lactose]

Compound: O=C(O)CCCC[C@@H]1SC[C@@H]2NC(=O)N[C@@H]21 [biotin, Biotin]
Ka (streptavidin): ~10^14 M^−1
Ka (Avidin): 10^13-10^15 M^−1

Compound: CO[C@@H]1O[C@H](CO)[C@@H](O[C@@H]2O[C@H](CO)[C@H](O)[C@H](O)[C@H]2O)[C@H](O)[C@H]1O [β-methyl lactoside]
association constant, the affinity measured by isothermal titration calorimetry (galectin 3): 6400±100
